{
  "source": "patent US20090325931A1",
  "about": "“USE OF CDK INHIBITORS FOR THE TREATMENT OF GRANULOCYTE MEDIATED DISORDERS” (University Court of the University of Edinburgh, priority 2006, published 2009)",
  "key": {"human neutrophils [1]": {"system": "human neutrophils", "assay": "Human neutrophil apoptosis (annexin-V-FITC binding, confirmed by morphology)", "type": "cell-based", "conditions": "for rate of apoptosis, time course study: after 8 h, NG75 10 μM, HD 10 μM; for rate of constitutive apoptosis: increasing concentrations, over 20 h; for rates of apoptosis assessed by annexin V binding: stereoisomers at 20 μM, after 6 h, mean±s.e.m., n=4 donors, control 12.4±0.4%"}, "human neutrophils [2]": {"system": "human neutrophils", "assay": "Reversal of dbcAMP, GMCSF and LPS mediated survival of neutrophils", "type": "cell-based", "conditions": "30 min pre-incubation with survival factor, then 20 h", "description": "At least 500 cells were counted per slide and the percentage apoptosis calculated. Apoptosis and loss of membrane integrity was also assessed by flow cytometry using human recombinant annexin-V-FITC (Roche, UK) to measure phosphatidylserine (PS) exposure, in combination with propidium iodide (Sigma). Stock annexin-V-FITC was diluted at 1:500 in annexin-V binding buffer (500 ml Hanks Balanced Salt Solution containing […]) and was added at a volume of 280 μl to 5×10^4 cells, and then incubated on ice for 10 min. 1 μl of PI (stock 1 mg/ml) was added to the samples shortly before analysis using the EPICS XL2 flow cytometer (Beckman Coulter, High Wycombe, UK). Where apoptosis data are presented as annexin-V binding, apoptosis was also confirmed by morphological assessment.\nSince CDK inhibitors were able to accelerate apoptosis, the inventors investigated whether these compounds could also reverse the effects of agents known to delay apoptosis through different signaling pathways (Riley, N. A. et al. Anti-inflammatory & Anti-Allergy Agents in Medicinal Chemistry 5, 3-12 (2006)). […] Lipopolysaccharide (LPS) binds to Toll-like receptor (TLR)4, that interacts with CD14 eventually leading to mitogen-activation kinases (MAPK), PI3K and/or NF-κB signaling to inhibit apoptosis. […] Apoptosis was assessed by annexin-V-FITC, and checked by morphology."}, "Mcl-1": {"system": "Mcl-1", "assay": "Mcl-1 protein expression in neutrophils (western blot)", "type": "cell-based, human"}, "[3]": {"system": "carrageenan-induced pleural inflammation", "assay": "Carrageenan-induced pleurisy", "type": "in vivo, C57BL/6J mice"}, "serum induced arthritis": {"system": "serum induced arthritis", "assay": "Passively-induced (K/BxN serum) arthritis", "type": "in vivo, C57BL/6J mice", "conditions": "10 mg/kg i.p. on days 3-19 every second day", "description": "Sera (100 μl) extracted from 60 day old arthritic K/B×N mice was injected intra-peritoneally into 6-8 week old female C57BL/6J mice (B&K, Hull, UK). Arthritis was scored by clinical examination. Briefly, a score of 1 was given for erythema alone or swelling of 1 digit. A score of 2 resulted from erythema plus swelling of the tarsal joints or swelling of the hock or wrist joint alone. A maximum score of 3 was achieved when swelling was present in both tarsal and hock joints, or both wrist and digits, or more than 2 digits and the tarsal joints. The score for each limb was added giving a maximum score of 12 and the mean score reflects the total score divided by the number of recipient mice per group.\nMice (n=10 in each group) were injected twice (days 0 and 3) with K/B×N serum derived from arthritic (day 60) K/B×N transgenic mice. Clinical scores were assessed on the days indicated."}, "tumor": {"system": "tumor", "conditions": "cited from earlier work"}, "caspase-3": {"system": "caspase-3", "assay": "Caspase-3 cleavage in neutrophils (western blot)", "conditions": "20 μM, 4 h"}, "[4]": {"conditions": "10 or 100 mg/Kg i.p., 36 h post-carrageenan"}, "[5]": {"conditions": "zVAD-fmk 1 μg/Kg i.p. at 4 h intervals"}, "[6]": {"conditions": "zVAD-fmk 1 μg/Kg i.p. at 4 h intervals, R-roscovitine 10 mg/Kg"}},
  "data": [
    {"compound": "COc1ccc(CNc2nc(N[C@@H](CO)C(C)C)nc3c2ncn3C(C)C)cc1", "note": "[NG75, 2-(1R-isopropyl-2-hydroxyethylamino)-6-(4-methoxy-benzylamino)-9-isopropylpurine]", "values": [
      {"measurement": "annexin-V/PI positive cell populations (secondary necrosis)", "setting": "human neutrophils [1]; 20 h treatment", "value": "increased number"},
      {"measurement": "rate of apoptosis, time course study", "setting": "human neutrophils [1]; R-roscovitine 20 μM", "value": "increased the rate of apoptosis dramatically"},
      {"measurement": "annexin V positive cells", "setting": "human neutrophils [1]; after 8 h of treatment", "value": "marked increase"},
      {"measurement": "rate of constitutive apoptosis", "setting": "human neutrophils [1]", "value": "significantly increased"}
    ]},
    {"compound": "CC[C@H](CO)Nc1nc(NCc2ccccc2)c2ncn(C(C)C)c2n1", "note": "[R-roscovitine, (R)-2-[{9-(1-methylethyl)-6-[(phenylmethyl)amino]-9H-purin-2-yl]amino}-1-butanol]", "values": [
      {"measurement": "rate of apoptosis, time course study", "setting": "human neutrophils [1]; R-roscovitine 20 μM", "value": "increased the rate of apoptosis dramatically"},
      {"measurement": "rate of constitutive apoptosis", "setting": "human neutrophils [1]", "value": "significantly increased"},
      {"measurement": "rates of apoptosis assessed by annexin V binding", "setting": "human neutrophils [1]", "value": "75.9±3.5", "unit": "%"},
      {"measurement": "effect on survival signals (dbcAMP, GMCSF, LPS delayed apoptosis)", "setting": "human neutrophils [2]", "value": "clearly is dominant over survival factor mediated effects"},
      {"measurement": "effect on GM-CSF mediated up-regulation of Mcl-1", "setting": "Mcl-1; R-roscovitine 20 μM plus GM-CSF 50 U/ml, 4 h", "value": "inhibits GM-CSF mediated up-regulation of Mcl-1"},
      {"measurement": "inhibition of total inflammatory cell number compared with vehicle control", "setting": "[3]; 10 mg/kg i.p. 24 h after carrageenan, 36 h post-carrageenan", "value": "greater than 50%"},
      {"measurement": "number of monocytes/macrophages and neutrophils", "setting": "[3]; 10 mg/kg i.p., 36 h post-carrageenan", "value": "reduction"},
      {"measurement": "lung inflammation (inflammatory infiltrate in lung sections)", "setting": "[3]; 100 mg/Kg i.p., 36 h post-carrageenan", "value": "dramatically reduced"},
      {"measurement": "pleural cavity total cell numbers over seven days", "setting": "[3]; 100 mg/kg i.p. at 24 h, all time points examined", "value": "marked resolution of inflammation"},
      {"measurement": "amount of inflammatory cells in pleural cavity", "setting": "[3]; 100 mg/kg i.p., 36 h post-carrageenan", "value": "near baseline levels"},
      {"measurement": "IFN-γ in the inflammatory exudate", "setting": "[3]; [4]", "value": "diminished"},
      {"measurement": "IL-6 in the inflammatory exudate", "setting": "[3]; [4]", "value": "diminished"},
      {"measurement": "MCP-1 in the inflammatory exudate", "setting": "[3]; [4]", "value": "diminished"},
      {"measurement": "edema formation (total exudate volume), decrease compared with saline control", "setting": "[3]; 36 h post-carrageenan", "value": "three-fold"},
      {"measurement": "inflammatory cell apoptosis and macrophages containing apoptotic bodies in the pleural cavity", "setting": "[3]; 36 h post-carrageenan", "value": "increase"},
      {"measurement": "arthritis as assessed by clinical scores", "setting": "serum induced arthritis", "value": "dramatically resolved quicker"},
      {"measurement": "tolerability", "setting": "tumor; even with high doses of 2 g/kg", "value": "well tolerated"},
      {"measurement": "tumor size", "setting": "tumor; systemic administration", "value": "specific reduction in tumor size"},
      {"measurement": "caspase-3 cleavage", "setting": "caspase-3", "value": "results in caspase-3 cleavage"}
    ]},
    {"compound": "CC[C@@H](CO)Nc1nc(NCc2ccccc2)c2ncn(C(C)C)c2n1", "note": "[S-roscovitine]", "values": [
      {"measurement": "rates of apoptosis assessed by annexin V binding", "setting": "human neutrophils [1]", "value": "75.6±3.3", "unit": "%"}
    ]},
    {"compound": "COC(=O)C[C@H](NC(=O)[C@H](C)NC(=O)[C@@H](NC(=O)OCc1ccccc1)C(C)C)C(=O)CF", "note": "(racemic) [zVAD-fmk, z-Val-Ala-DL-Asp-fluoromethylketone]", "values": [
      {"measurement": "effect on R-roscovitine induced apoptosis", "setting": "human neutrophils [1]; zVAD-fmk 100 μM, R-roscovitine 20 μM, 6 h", "value": "prevented R-roscovitine induced apoptosis"},
      {"measurement": "edema formation compared with saline or vehicle controls", "setting": "[3]; [5]", "value": "increasing"},
      {"measurement": "total inflammatory cell number compared with saline or vehicle controls", "setting": "[3]; [5]", "value": "increasing"},
      {"measurement": "effect on R-roscovitine increase in inflammatory cell apoptosis and macrophages containing apoptotic bodies", "setting": "[3]; [6]", "value": "inhibited dramatically"},
      {"measurement": "effect on R-roscovitine-induced decrease in inflammatory cells and edema formation", "setting": "[3]; [6]", "value": "prevented"}
    ]},
    {"compound": "GM-CSF: pro-survival factor (R & D Systems)", "values": [
      {"measurement": "effect on fall of Mcl-1 levels in culture", "setting": "Mcl-1; GM-CSF 50 U/ml", "value": "prevented"}
    ]}
  ]
}
